molecular target: T1, BTK (Homo sapiens, UniProt Q06187); test: BTK cell degradation in Ramos cells (total BTK ELISA); format: cell-based; details: 16 h incubation, FastScan total BTK ELISA
T1 construct: endogenous in cells; host or cells: Ramos cells
Summary of the method: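 Ramos cells were treated for 16 h with compounds (7 doses, 5-fold dilution series, 0.1% DMSO). Total BTK in cell lysates was quantified by sandwich ELISA with TMB read-out at 450 nm.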

T1 sequence (Q06187 whole entry): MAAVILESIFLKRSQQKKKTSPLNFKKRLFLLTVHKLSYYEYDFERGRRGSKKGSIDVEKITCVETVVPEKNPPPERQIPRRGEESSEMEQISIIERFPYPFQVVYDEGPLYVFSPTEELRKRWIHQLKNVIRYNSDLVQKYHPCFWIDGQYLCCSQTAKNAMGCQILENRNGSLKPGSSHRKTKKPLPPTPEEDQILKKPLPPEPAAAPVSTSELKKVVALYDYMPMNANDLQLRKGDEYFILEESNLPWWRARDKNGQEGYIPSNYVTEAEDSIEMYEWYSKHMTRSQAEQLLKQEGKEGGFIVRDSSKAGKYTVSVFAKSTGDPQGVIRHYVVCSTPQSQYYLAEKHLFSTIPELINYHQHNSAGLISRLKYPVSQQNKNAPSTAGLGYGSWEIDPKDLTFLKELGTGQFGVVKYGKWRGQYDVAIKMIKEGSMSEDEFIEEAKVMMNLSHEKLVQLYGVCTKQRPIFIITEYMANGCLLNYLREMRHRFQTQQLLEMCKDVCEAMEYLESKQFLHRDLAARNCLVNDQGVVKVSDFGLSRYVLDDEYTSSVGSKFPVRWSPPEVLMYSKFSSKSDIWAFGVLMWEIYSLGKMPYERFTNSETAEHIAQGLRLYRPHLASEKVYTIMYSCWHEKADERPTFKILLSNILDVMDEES

Row | DC50 [nM] | Structure (SMILES)
1 | 35 | CN(CCC(=O)N1CCC([C@@H]2CCNc3c(C(N)=O)c(-c4ccc(Oc5ccccc5)cc4)nn32)CC1)CC1CCN(c2ccc3c(c2)C(=O)N(C2CCC(=O)NC2=O)C3=O)CC1 (stereo partly drawn) [Example 64, (7S)-7-(1-(3-(((1-(2-(2,6-dioxopiperidin-3-yl)-1,3-dioxoisoindolin-5-yl)piperidin-4-yl)methyl)(methyl)amino)propanoyl)piperidin-4-yl)-2-(4-phenoxyphenyl)-4,5,6,7-tetrahydropyrazolo[1,5-a]pyrimidine-3-carboxamide]
2 | 1680 | NC(=O)c1c(-c2ccc(Oc3ccccc3)cc2)nn2c1NCC[C@H]2C1CCN(C(=O)CCN2CCC(CN3CCN(c4ccc5c(c4)C(=O)N(C4CCC(=O)NC4=O)C5=O)CC3)CC2)CC1 (stereo partly drawn) [Example 95, (7S)-7-(1-(3-(4-((4-(2-(2,6-dioxopiperidin-3-yl)-1,3-dioxoisoindolin-5-yl)piperazin-1-yl)methyl)piperidin-1-yl)propanoyl)piperidin-4-yl)-2-(4-phenoxyphenyl)-4,5,6,7-tetrahydropyrazolo[1,5-a]pyrimidine-3-carboxamide]
3 | 205 | NC(=O)c1c(-c2ccc(Oc3ccccc3)cc2)nn2c1NCC[C@H]2C1CCN(C(=O)CCCC2CCC(N3CCN(c4ccc5c(c4)C(=O)N(C4CCC(=O)NC4=O)C5=O)CC3)CC2)CC1 (stereo partly drawn) [Example 148, (7S)-7-(1-(4-(4-(4-(2-(2,6-dioxopiperidin-3-yl)-1,3-dioxoisoindolin-5-yl)piperazin-1-yl)cyclohexyl)butanoyl)piperidin-4-yl)-2-(4-phenoxyphenyl)-4,5,6,7-tetrahydropyrazolo[1,5-a]pyrimidine-3-carboxamide]
4 | 17 | NC(=O)c1c(-c2ccc(Oc3ccccc3)cc2)nn2c1NCC[C@H]2C1CCN(C(=O)CCC2CCC(N3CCN(c4ccc5c(c4)C(=O)N(C4CCC(=O)NC4=O)C5=O)CC3)CC2)CC1 (stereo partly drawn) [Example 151, (7S)-7-(1-(3-(4-(4-(2-(2,6-dioxopiperidin-3-yl)-1,3-dioxoisoindolin-5-yl)piperazin-1-yl)cyclohexyl)propanoyl)piperidin-4-yl)-2-(4-phenoxyphenyl)-4,5,6,7-tetrahydropyrazolo[1,5-a] pyrimidine-3-carboxamide]
5 | 35 | NC(=O)c1c(-c2ccc(Oc3ccccc3)cc2)nn2c1NCC[C@H]2C1CCN(C(=O)CCCN2CCN(C(=O)CNc3ccc4c(c3)C(=O)N(C3CCC(=O)NC3=O)C4=O)CC2)CC1 (stereo partly drawn) [Example 152, (7S)-7-(1-(4-(4-((2-(2,6-dioxopiperidin-3-yl)-1,3-dioxoisoindolin-5-yl)glycyl)piperazin-1-yl)butanoyl)piperidin-4-yl)-2-(4-phenoxyphenyl)-4,5,6,7-tetrahydropyrazolo[1,5-a]pyrimidine-3-carboxamide]
6 | 637 | NC(=O)c1c(-c2ccc(Oc3ccccc3)cc2)nn2c1NCC[C@H]2C1CCN(C(=O)CCNc2cccc3c2C(=O)N(C2CCC(=O)NC2=O)C3=O)CC1 (stereo partly drawn) [Example 154, (7S)-7-(1-(3-((2-(2,6-dioxopiperidin-3-yl)-1,3-dioxoisoindolin-4-yl)amino)propanoyl)piperidin-4-yl)-2-(4-phenoxyphenyl)-4,5,6,7-tetrahydropyrazolo[1,5-a]pyrimidine-3-carboxamide]
7 | 7.2 | CN(CC1CCN(C(=O)c2ccc(N3CCC(=O)NC3=O)cc2)CC1)C1CC(C(=O)N2CCC([C@@H]3CCNc4c(C(N)=O)c(-c5ccc(Oc6ccccc6)cc5)nn43)CC2)C1 (stereo partly drawn) [Example 155, (S)-7-(1-(3-(((1-(4-(2,4-dioxotetrahydropyrimidin-1(2H)-yl)benzoyl)piperidin-4-yl)methyl)(methyl)amino)cyclobutane-1-carbonyl)piperidin-4-yl)-2-(4-phenoxyphenyl)-4,5,6,7-tetrahydropyrazolo[1,5-a]pyrimidine-3-carboxamide]
8 | 1680 | NC(=O)c1c(-c2ccc(Oc3ccccc3)cc2)nn2c1NCC[C@H]2C1CCN(C(=O)CCN2CCC(N3CCN(c4ccc5c(c4)C(=O)N(C4CCC(=O)NC4=O)C5=O)CC3)CC2)CC1 (stereo partly drawn) [Example 156, (7S)-7-(1-(3-(4-(4-(2-(2,6-dioxopiperidin-3-yl)-1,3-dioxoisoindolin-5-yl)piperazin-1-yl)piperidin-1-yl)propanoyl)piperidin-4-yl)-2-(4-phenoxyphenyl)-4,5,6,7-tetrahydropyrazolo[1,5-a]pyrimidine-3-carboxamide]

From patent US20220281876A1, “DEGRADATION OF BRUTON'S TYROSINE KINASE (BTK) BY CONJUGATION OF BTK INHIBITORS WITH E3 LIGASE LIGAND AND METHODS OF USE” (BEIGENE, LTD., priority 2019, published 2022)
